The values below come from ChEMBL document CHEMBL1201862, “PubChem BioAssay data set” (2004).

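Assay format: 96-well plates, 48-hour exposure. GI50 = concentration required for 50% inhibition of growth.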 Active and inactive are the calls of the source. Cut-off read from the data, not from the text of the source: active = GI50 up to about 1.1 µM and inactive = higher.

Holding throughout (assay): NCI-60 cell line screen, 48 h
The test system of assay [1] is 786-0.
Assay [2] concerns SNB-75.
For assay [3], the system named is OVCAR-3.
Assay [4] concerns OVCAR-8.
Assay [5] concerns SF-295.
Assay [6] relates to K562.
For assay [7], the system named is MCF7.
Assay [8] concerns DMS-114.
In assay [9] the test system is RXF 393.
For assay [10], the system named is NCI-H23.
Assay [11] deals with SK-MEL-2.
Assay [12] relates to MDA-MB-435.
Assay [13] has as its system NCI-H226.
In assay [14] the test system is HCC 2998.
Assay [15] concerns UACC-257.
Assay [16] relates to SF-268.
In assay [17] the test system is EKVX.
In assay [18] the test system is SN12C.
In assay [19] the test system is MDA-N.
In assay [20] the test system is BT-549.

Turning to `COc1cc(/C=C/c2ccc(/C=C/c3cc(OC)c(OC)c(OC)c3)cc2)cc(OC)c1OC`, the GI50 is 7.94 µM (inactive) in assay [1]; 6.34 µM (inactive) in assay [2]; 25.2 µM (inactive) in assay [3]; 12.2 µM (inactive) in assay [4]; 10.9 µM (inactive) in assay [5]; 96.2 µM (inactive) in assay [6]. The GI50 in assay [7] was > 100 µM (inactive); in assay [8], 22.4 µM (inactive); in [9], 6.68 µM (inactive); in [10], 12.3 µM (inactive); in assay [11] it was 20.7 µM (inactive); in assay [12] it was 55.2 µM (inactive). Besides, the GI50 in [13] was 20.3 µM (inactive); in [14], 22.2 µM (inactive); in assay [15] it was 58.7 µM (inactive); in [16], 11.7 µM (inactive); in assay [17], > 46.9 µM (inactive); in assay [18], 56.8 µM (inactive).
For `CN(C)C(=S)/N=c1\ssc(=S)n1Cc1cccnc1`, the GI50 was 4.07 µM (inactive) in assay [1]; 1.91 µM (inactive) in assay [2]; 1.65 µM (inactive) in assay [3]; 3.66 µM (inactive) in [4]; 1.81 µM (inactive) in [5]; 1.12 µM (active) in [6]. Besides, the GI50 in assay [7] is 2.91 µM (inactive); in assay [8], 0.783 µM (active); in assay [9], 1.47 µM (inactive); in assay [19], 0.324 µM (active); in assay [10] it was 2.64 µM (inactive); in assay [11] it was 2.29 µM (inactive). In addition, the GI50 in assay [12] is 0.277 µM (active); in [13] it was > 55.6 µM (inactive); in [14], 2.54 µM (inactive); in assay [15], 4.23 µM (inactive); in assay [16] it was 15.2 µM (inactive); in assay [17] it was > 88.9 µM (inactive). Besides, the GI50 in [18] is 5.18 µM (inactive).
For `CC(O)CCC(=O)c1ccoc1` (stereo unspecified), the GI50 in assay [1] was > 10000 µM (inactive); in [20], 2920 µM (inactive); in [2] it was 3500 µM (inactive); in assay [3], 3610 µM (inactive); in [4] it was 6840 µM (inactive); in assay [5] it was 7130 µM (inactive). The GI50 is 6180 µM (inactive) in [6]; 5680 µM (inactive) in assay [7]; 2610 µM (inactive) in assay [8]; 4850 µM (inactive) in assay [9]; 8110 µM (inactive) in assay [10]; 7710 µM (inactive) in [11]. Moreover, the GI50 was > 10000 µM (inactive) in [12]; 5610 µM (inactive) in [13]; 8610 µM (inactive) in assay [14]; 5130 µM (inactive) in [15]; 7000 µM (inactive) in assay [16]; 6080 µM (inactive) in assay [17]. The GI50 in assay [18] is 7180 µM (inactive).
